Results as given in ChEMBL document CHEMBL3632499, “Synthesis and Antiproliferative Activity Evaluation of the Disulfide-Containing Cyclic Peptide Thiochondrilline C and Derivatives” (J Nat Prod, 2015).
Positions of bridges follow the written chain, without caps; N, C: chain ends. Non-standard residues stand in square brackets, D forms with d. Residues, ends and D or L forms follow the SMILES beside them. *: point of attachment. Quinaldoyl(3-OH) = O=C(c1nc2ccccc2cc1O)*; NMeC = CN[C@@H](CS)C(=O)O

Experiments:
A549 [1] = experiment: Cytotoxicity against human A549 cells; format: functional, cell-based
A549 [2] = experiment: Antiproliferative activity against human A549 cells assessed as growth inhibition at 10 uM; format: functional; details: read-out: GI

Row | SMILES | EC50 (A549 [1]) | inhibition of growth at 10 µM (A549 [2])
1 | COC(=O)[C@H](CSC)N(C)C(=O)[C@@H]1CSSC[C@@H](NC(=O)c2nc3ccccc3cc2O)C(=O)NCC(=O)N1C ({Quinaldoyl(3-OH)}-[dC]G[NMeC][NMeC](Me)-OMe; disulfide 1-3) | 2900 nM | 
2 | COC(=O)[C@H](C)N(C)C(=O)[C@@H]1CSSC[C@@H](NC(=O)c2nc3ccccc3cc2O)C(=O)NCC(=O)N1C |  | < 30%
